Source: patent US7727967B2, “Cyanooxime inhibitors of carbonyl reductase and methods of using said inhibitors in treatments involving anthracyclines” (Boise State University, priority 2006, dated 2010)

How the values were obtained:
[1] = test system: A549 adenocarcinoma cells; conditions: coadministered with daunorubicin; cited from earlier work
carbonyl reductase [2] = biological target: T1, carbonyl reductase (Homo sapiens, UniProt P16152); conditions: cited from earlier work
T1 sequence (P16152 1-277): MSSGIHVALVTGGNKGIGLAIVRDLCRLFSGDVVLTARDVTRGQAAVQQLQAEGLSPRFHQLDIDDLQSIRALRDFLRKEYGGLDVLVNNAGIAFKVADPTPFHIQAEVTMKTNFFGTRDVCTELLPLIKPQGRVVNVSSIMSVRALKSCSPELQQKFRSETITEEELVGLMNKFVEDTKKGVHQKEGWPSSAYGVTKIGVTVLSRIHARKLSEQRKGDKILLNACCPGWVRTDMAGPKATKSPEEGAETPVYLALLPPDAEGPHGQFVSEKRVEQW

carbonyl reductase [3] = biological target: T1, carbonyl reductase; test: Inhibition of carbonyl reductase by arylcyanooximes (1/rate vs. 1/substrate, menadione and NADPH as varied substrates); type: biochemical; conditions: for Ki: uncompetitive against both coenzyme and carbonyl substrates, range over the six compounds, read-out: Kii (intercept inhibition constant)
Experimental: FIG. 6 describes inhibition patterns seen with inhibitors C1, C2, C3, C4, C5, and C6 wherein KII stands for the intercept inhibition constant.
Six arylcyanooximes (C1, C2, C3, C4, C5, and C6) were tested as possible inhibitors for carbonyl reductase. (See the syntheses described earlier in this disclosure). […] See FIGS. 5 A and B, portraying the 1/rate vs. 1/substrate concentration taken with C5, with menadione and NADPH as the varied substrates, respectively. […] Therefore, while compositions comprising C5 are preferred, compositions comprising C1, C2, C3, C4, and/or C6 are also included in embodiments of the invention and are also expected by the inventors to be beneficial in the methods of the invention.

For `CNc1ncnc2c1c(-c1cccc(O)c1)cn2C(C)C` [3-(7-isopropyl-4-(methylamino)-7H-pyrrolo[2,3-d]pyrimidin-5-yl)phenol], the “effect on cytotoxicity of daunorubicin” value [1] is listed as “enhance the cytotoxicity of daunorubicin” and the “potency as inhibitor of human carbonyl reductase (in words)” value (carbonyl reductase [2]) is listed as “potent inhibitor”.

For `N#CC(=NO)c1ccc(F)cc1F` [C1, oximino(2,4-difluorophenyl)acetonitrile], the melting point was 64 to 65 °C, the “inhibition pattern against the carbonyl substrate” value (carbonyl reductase [3]) was “uncompetitive inhibitors” and the “inhibition pattern against both coenzyme and carbonyl substrates” value (carbonyl reductase [3]) was “uncompetitive inhibitors”. It also gave a Ki (carbonyl reductase [3]) of 10.8 to 72 µM.

In the case of `N#CC(=NO)c1c(F)cccc1F` [C2, oximino(2,6-difluorophenyl)acetonitrile], the melting point is reported as 99 to 100 °C, the “inhibition pattern against the carbonyl substrate” value (carbonyl reductase [3]) is reported as “uncompetitive inhibitors” and the “inhibition pattern against both coenzyme and carbonyl substrates” value (carbonyl reductase [3]) is reported as “uncompetitive inhibitors”. For the same compound, the Ki (carbonyl reductase [3]) was 10.8 to 72 µM.

In the case of `N#CC(=NO)c1cc(F)ccc1F` [C3, oximino(2,5-difluorophenyl)acetonitrile], the melting point is reported as 64 to 67 °C, the “inhibition pattern against the carbonyl substrate” value (carbonyl reductase [3]) is reported as “uncompetitive inhibitors” and the “inhibition pattern against both coenzyme and carbonyl substrates” value (carbonyl reductase [3]) is reported as “uncompetitive inhibitors”. For the same compound, the Ki (carbonyl reductase [3]) was 10.8 to 72 µM.

In the case of `N#CC(=NO)c1c(F)cccc1Cl` [C4, oximino(2-chloro-6-fluorophenyl)acetonitrile], the “inhibition pattern against the carbonyl substrate” value (carbonyl reductase [3]) is reported as “uncompetitive inhibitors”, the “inhibition pattern against both coenzyme and carbonyl substrates” value (carbonyl reductase [3]) is reported as “uncompetitive inhibitors” and the Ki (carbonyl reductase [3]) is reported as 10.8 to 72 µM.

With `N#CC(=NO)c1ccc(Cl)cc1Cl` [C5, oximino(2,4-dichlorophenyl)acetonitrile] the melting point was 151 °C, the “potency as inhibitor of carbonyl reductase (in words)” value (carbonyl reductase [3]) was “potent inhibitor” and the “inhibition pattern against NADPH” value (carbonyl reductase [3]; NADPH as varied substrate (FIG. 5B)) was “uncompetitive inhibitor”. For the same compound, the “inhibition pattern against the carbonyl substrate” value (carbonyl reductase [3]) was “uncompetitive inhibitors”, the “inhibition pattern against both coenzyme and carbonyl substrates” value (carbonyl reductase [3]) was “uncompetitive inhibitors” and the “inhibition pattern against menadione” value (carbonyl reductase [3]; menadione as varied substrate (FIG. 5A)) was “uncompetitive inhibitor”. The Ki (carbonyl reductase [3]) was 10.8 to 72 µM.

With `N#CC(=NO)c1c(Cl)cccc1Cl` [C6, oximino(2,6-dichlorophenyl)acetonitrile] the melting point was 94 to 96 °C, the “inhibition pattern against the carbonyl substrate” value (carbonyl reductase [3]) was “uncompetitive inhibitors” and the “inhibition pattern against both coenzyme and carbonyl substrates” value (carbonyl reductase [3]) was “uncompetitive inhibitors”. It also gave a Ki (carbonyl reductase [3]) of 10.8 to 72 µM.
